Measurements from BigSolDB 2.1.

C[C@@H]1O[C@@H](O[C@H]2[C@H](Oc3cc(O)c(C(=O)CCc4ccc(O)cc4)c(O)c3)O[C@H](CO)[C@@H](O)[C@@H]2O)[C@H](O)[C@H](O)[C@H]1O
solubility (mole fraction)
Conditions	298.15 K	308.15 K	318.15 K	328.15 K	338.15 K
in ethyl acetate	0.00031	0.000369	0.000491	0.000668	0.000776
in water	2.13e-05	3.78e-05	7.12e-05	0.000166	0.000375
